The test system of experiment [1] is endothelial tube formation in co-cultures of ECFCs and ADSCs treated with VEGF. The experiment can be described thus: cells. Format: cell-based, human.
The test system of experiment [2] is nuclear β-catenin in C2C12 cells. The experiment can be described thus: cells. The class given is cell-based. The conditions noted are these: assay number 5; concentration response.
For experiment [3], the system named is alkaline phosphatase (ALP) activity in C2C12 cells. Format: cell-based. To be noted: assay number 6; concentration response.
The test system of a further experiment is HeLa cells. The experiment can be described thus: cells. Format: cell-based. To be noted: for Hela CellCycMod PI 2N IC50/EC50: assay number 14; for Hela CellCycMod PI 4N IC50/EC50: assay number 16; for Hela CellCycMod PI MI IC50/EC50: assay number 17; for Hela CellCycMod PI Cell Number IC50/EC50: assay number 18; for Hela CellCycMod PI S Phase IC50/EC50: assay number 15.

In a further experiment the target is T1, hp70S6K1 (RPS6KB1) (Homo sapiens, UniProt P23443).
T1 construct: purchased Cerep (LANCE kinase assay platform, contract assay)
Description: Cerep LANCE kinase assay hp70S6K1 (S1 assay 31). The class given is biochemical. The conditions noted are these: assay number 31. A general note: Time-resolved FRET reads energy transfer from a long-lived donor to a nearby acceptor.

Another experiment deals with T2, hKDR (Homo sapiens, UniProt P35968).
T2 construct: purchased Cerep (LANCE kinase assay platform, contract assay)
The experiment can be described thus: Cerep LANCE kinase assay hKDR (S1 assay 32). To be noted: assay number 32. The class given is biochemical.

In the next experiment the target is T3, hJAK2 (Homo sapiens, UniProt O60674).
T3 construct: purchased Cerep (LANCE kinase assay platform, contract assay)
The experiment can be described thus: Cerep LANCE kinase assay hJAK2 (S1 assay 33). To be noted: assay number 33. The class given is biochemical.

In another experiment the target is T4, hGSK3b (Homo sapiens, UniProt P49841).
T4 construct: purchased Cerep (LANCE kinase assay platform, contract assay)
Description: Cerep LANCE kinase assay hGSK3b (S1 assay 34). Format: biochemical. The conditions noted are these: assay number 34.

A further experiment addresses T5, hFLT3 (Homo sapiens, UniProt P36888).
T5 construct: purchased Cerep (LANCE kinase assay platform, contract assay)
Description: Cerep LANCE kinase assay hFLT3 (S1 assay 35). Format: biochemical. To be noted: assay number 35.

The subject of experiment [4] is ECFC/ADSC co-culture cell nuclei number.

T3 sequence (O60674 whole entry): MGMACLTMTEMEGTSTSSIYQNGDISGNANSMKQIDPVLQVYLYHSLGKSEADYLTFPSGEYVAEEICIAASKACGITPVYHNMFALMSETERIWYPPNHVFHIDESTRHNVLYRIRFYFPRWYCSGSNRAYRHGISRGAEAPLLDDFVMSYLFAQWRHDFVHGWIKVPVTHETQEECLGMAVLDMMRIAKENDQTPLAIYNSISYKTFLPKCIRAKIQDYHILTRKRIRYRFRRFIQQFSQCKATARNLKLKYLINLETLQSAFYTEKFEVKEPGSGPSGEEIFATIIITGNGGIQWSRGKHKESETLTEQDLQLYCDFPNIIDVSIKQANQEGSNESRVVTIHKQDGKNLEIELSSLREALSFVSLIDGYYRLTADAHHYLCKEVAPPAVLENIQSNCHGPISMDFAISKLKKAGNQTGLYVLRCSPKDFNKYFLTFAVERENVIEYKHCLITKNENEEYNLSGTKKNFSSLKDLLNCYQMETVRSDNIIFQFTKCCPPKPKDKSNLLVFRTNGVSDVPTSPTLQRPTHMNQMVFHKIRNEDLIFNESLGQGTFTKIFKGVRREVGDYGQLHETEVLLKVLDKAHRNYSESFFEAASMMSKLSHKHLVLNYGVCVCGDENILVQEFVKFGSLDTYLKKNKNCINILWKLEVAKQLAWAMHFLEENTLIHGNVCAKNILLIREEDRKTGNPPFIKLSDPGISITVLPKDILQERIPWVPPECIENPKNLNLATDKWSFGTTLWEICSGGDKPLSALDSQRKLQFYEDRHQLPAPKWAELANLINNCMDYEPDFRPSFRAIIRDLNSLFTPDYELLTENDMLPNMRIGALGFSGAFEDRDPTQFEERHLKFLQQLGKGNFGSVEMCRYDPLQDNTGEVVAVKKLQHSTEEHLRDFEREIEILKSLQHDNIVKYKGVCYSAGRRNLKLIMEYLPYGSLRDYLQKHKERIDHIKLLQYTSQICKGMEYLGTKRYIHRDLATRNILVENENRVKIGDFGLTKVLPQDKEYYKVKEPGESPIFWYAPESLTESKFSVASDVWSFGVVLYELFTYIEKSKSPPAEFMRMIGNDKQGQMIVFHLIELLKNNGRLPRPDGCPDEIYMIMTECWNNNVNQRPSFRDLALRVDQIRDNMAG
T5 sequence (P36888 27-993): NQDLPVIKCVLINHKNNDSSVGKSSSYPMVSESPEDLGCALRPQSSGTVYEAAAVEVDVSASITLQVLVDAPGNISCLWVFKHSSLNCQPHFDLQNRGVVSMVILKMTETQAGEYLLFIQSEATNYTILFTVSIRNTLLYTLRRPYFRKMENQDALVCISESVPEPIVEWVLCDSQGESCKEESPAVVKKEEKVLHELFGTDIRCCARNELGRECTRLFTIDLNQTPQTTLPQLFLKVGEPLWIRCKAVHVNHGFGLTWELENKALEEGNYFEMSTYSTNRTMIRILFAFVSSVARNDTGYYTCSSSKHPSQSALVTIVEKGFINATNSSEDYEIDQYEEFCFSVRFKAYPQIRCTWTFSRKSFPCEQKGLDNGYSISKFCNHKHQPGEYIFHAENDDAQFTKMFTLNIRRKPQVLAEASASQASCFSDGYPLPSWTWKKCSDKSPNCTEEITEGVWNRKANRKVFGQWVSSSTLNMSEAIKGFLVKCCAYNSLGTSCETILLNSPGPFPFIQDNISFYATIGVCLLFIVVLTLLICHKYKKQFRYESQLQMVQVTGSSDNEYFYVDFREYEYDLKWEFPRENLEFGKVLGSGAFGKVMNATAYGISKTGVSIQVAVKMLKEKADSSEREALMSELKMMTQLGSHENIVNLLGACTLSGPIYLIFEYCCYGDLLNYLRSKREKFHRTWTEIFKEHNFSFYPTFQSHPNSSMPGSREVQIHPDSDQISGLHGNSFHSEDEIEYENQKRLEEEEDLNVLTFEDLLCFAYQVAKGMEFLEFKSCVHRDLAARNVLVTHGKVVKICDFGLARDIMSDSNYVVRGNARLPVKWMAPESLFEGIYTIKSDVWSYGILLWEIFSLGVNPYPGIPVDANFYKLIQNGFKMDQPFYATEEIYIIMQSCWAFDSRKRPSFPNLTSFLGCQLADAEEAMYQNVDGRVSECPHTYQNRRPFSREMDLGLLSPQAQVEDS
T1 sequence (P23443 whole entry): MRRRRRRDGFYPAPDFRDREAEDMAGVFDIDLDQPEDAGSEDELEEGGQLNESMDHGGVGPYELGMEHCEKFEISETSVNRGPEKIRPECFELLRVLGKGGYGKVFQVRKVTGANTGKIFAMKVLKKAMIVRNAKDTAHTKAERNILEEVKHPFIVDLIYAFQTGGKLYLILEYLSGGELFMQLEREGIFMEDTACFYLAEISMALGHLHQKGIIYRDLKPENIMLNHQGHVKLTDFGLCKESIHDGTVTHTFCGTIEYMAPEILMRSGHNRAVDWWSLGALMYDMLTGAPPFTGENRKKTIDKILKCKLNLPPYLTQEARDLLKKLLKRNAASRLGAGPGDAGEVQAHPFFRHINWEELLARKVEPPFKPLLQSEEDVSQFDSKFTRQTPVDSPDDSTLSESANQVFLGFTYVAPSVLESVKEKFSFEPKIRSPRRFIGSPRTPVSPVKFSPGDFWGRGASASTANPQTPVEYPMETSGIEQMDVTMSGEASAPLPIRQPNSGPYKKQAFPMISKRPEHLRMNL
T4 sequence (P49841 whole entry): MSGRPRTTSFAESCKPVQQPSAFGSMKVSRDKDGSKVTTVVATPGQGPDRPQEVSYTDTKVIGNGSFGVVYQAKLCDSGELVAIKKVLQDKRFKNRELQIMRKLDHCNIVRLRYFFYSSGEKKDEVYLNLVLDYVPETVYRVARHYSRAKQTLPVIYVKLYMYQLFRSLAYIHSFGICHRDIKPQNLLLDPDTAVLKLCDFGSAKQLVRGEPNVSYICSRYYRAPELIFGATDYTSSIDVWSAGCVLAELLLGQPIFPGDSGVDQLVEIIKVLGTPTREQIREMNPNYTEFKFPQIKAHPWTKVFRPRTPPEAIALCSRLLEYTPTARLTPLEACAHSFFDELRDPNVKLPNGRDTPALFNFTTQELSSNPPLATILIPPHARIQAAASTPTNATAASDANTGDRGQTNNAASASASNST
T2 sequence (P35968 20-1356): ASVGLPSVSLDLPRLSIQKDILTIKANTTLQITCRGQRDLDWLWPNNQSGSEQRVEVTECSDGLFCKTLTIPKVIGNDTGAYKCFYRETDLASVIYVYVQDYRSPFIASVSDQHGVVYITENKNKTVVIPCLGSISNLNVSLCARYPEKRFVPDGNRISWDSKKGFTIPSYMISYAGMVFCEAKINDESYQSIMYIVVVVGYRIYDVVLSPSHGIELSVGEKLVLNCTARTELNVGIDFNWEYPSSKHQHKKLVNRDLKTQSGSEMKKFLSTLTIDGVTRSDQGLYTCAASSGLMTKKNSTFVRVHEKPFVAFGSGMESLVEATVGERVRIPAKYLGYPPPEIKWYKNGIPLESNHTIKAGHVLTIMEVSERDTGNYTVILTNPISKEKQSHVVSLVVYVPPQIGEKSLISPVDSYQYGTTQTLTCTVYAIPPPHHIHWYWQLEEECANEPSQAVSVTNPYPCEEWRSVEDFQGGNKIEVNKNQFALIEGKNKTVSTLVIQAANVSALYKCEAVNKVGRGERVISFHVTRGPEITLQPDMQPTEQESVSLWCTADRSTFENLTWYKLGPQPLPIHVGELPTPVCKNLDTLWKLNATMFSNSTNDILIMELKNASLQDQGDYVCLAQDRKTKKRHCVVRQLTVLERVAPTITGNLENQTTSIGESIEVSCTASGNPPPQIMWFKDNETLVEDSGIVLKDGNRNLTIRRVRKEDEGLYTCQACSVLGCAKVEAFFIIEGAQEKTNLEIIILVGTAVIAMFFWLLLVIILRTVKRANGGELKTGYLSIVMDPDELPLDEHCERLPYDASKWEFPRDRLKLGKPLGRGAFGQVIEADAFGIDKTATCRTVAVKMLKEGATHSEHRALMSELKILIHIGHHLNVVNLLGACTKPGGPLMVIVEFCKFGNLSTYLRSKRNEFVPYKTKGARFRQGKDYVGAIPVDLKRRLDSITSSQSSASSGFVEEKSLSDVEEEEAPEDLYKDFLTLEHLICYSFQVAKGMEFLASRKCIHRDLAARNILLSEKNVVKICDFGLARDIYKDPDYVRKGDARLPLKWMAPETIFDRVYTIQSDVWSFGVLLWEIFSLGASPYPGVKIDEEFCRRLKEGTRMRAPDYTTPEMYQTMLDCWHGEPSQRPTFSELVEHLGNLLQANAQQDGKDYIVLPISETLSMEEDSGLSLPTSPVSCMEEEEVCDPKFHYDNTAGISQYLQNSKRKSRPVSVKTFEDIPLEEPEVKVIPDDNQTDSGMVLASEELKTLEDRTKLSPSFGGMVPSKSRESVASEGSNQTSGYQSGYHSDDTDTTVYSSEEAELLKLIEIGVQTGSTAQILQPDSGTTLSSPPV

In the case of `CCCCCCNC(=O)n1cc(F)c(=O)[nH]c1=O` [NCGC00095165-07], in experiment [1], the “VEGF_ADSC\ECFC Angio CD31 TubeArea IC50/EC50” value stood at 4.486 µM. For the same compound, the “WntCondMedia_bCatenin C2C12 IC50/EC50” value in [2] came out at 4.9829 µM. The “WntCondMedia_Alk Phos C2C12 IC50/EC50” value in experiment [3] is on record as 5.5533 µM. In the experiment on HeLa cells, the “Hela CellCycMod PI 2N IC50/EC50” value was greater than 10 µM, the “Hela CellCycMod PI 4N IC50/EC50” value is listed as greater than 10 µM, the “Hela CellCycMod PI MI IC50/EC50” value is listed as greater than 10 µM and the “Hela CellCycMod PI Cell Number IC50/EC50” value is listed as greater than 10 µM. Moreover, the “hp70S6K1 LANCE IC50/EC50” value on hp70S6K1 (RPS6KB1) is on record as greater than 20 µM. The “hKDR LANCE IC50/EC50” value at hKDR is listed as greater than 20 µM. In addition, the “hJAK2 LANCE IC50/EC50” value at hJAK2 is reported as greater than 20 µM. For the same compound, the “hGSK3b LANCE IC50/EC50” value at hGSK3b was greater than 20 µM. Also, the “hFLT3 LANCE IC50/EC50” value at hFLT3 was greater than 20 µM. The “VEGF_ADSC\ECFC Angio Hoechst NucArea IC50/EC50” value in experiment [4] is recorded as greater than 10 µM.

Regarding `[O-][n+]1ccccc1SSc1cccc[n+]1[O-]` [NCGC00164493-02], in [1], the “VEGF_ADSC\ECFC Angio CD31 TubeArea IC50/EC50” value is given as 0.719 µM. Besides, the “WntCondMedia_bCatenin C2C12 IC50/EC50” value in experiment [2] is on record as 0.9914 µM. The “WntCondMedia_Alk Phos C2C12 IC50/EC50” value in experiment [3] is on record as 0.1306 µM. In the experiment on HeLa cells, the “Hela CellCycMod PI 2N IC50/EC50” value is on record as greater than 10 µM, the “Hela CellCycMod PI S Phase IC50/EC50” value is greater than 10 µM, the “Hela CellCycMod PI 4N IC50/EC50” value is recorded as greater than 10 µM and the “Hela CellCycMod PI MI IC50/EC50” value is reported as 2.2317 µM. Further, the “Hela CellCycMod PI Cell Number IC50/EC50” value in the experiment on HeLa cells came to 0.8425 µM. At hp70S6K1 (RPS6KB1), the “hp70S6K1 LANCE IC50/EC50” value is on record as greater than 20 µM. Moreover, at hKDR, the “hKDR LANCE IC50/EC50” value is given as greater than 20 µM. On hJAK2, the “hJAK2 LANCE IC50/EC50” value is given as greater than 20 µM. Besides, the “hGSK3b LANCE IC50/EC50” value on hGSK3b is reported as greater than 20 µM. On hFLT3, the “hFLT3 LANCE IC50/EC50” value is greater than 20 µM. Besides, the “VEGF_ADSC\ECFC Angio Hoechst NucArea IC50/EC50” value in experiment [4] is on record as 1.7865 µM.

With `CC(C)(C)C(=O)OCOP(=O)(COCCn1cnc2c(N)ncnc21)OCOC(=O)C(C)(C)C` [NCGC00164624-02], the “VEGF_ADSC\ECFC Angio CD31 TubeArea IC50/EC50” value in experiment [1] came out at 0.3913 µM. Moreover, the “WntCondMedia_bCatenin C2C12 IC50/EC50” value in experiment [2] is reported as 0.7043 µM. In addition, the “WntCondMedia_Alk Phos C2C12 IC50/EC50” value in experiment [3] was found to be 0.3874 µM. Also, in the experiment with HeLa cells, the “Hela CellCycMod PI 2N IC50/EC50” value is listed as greater than 10 µM, the “Hela CellCycMod PI S Phase IC50/EC50” value was 0.0608 µM, the “Hela CellCycMod PI 4N IC50/EC50” value is on record as greater than 10 µM and the “Hela CellCycMod PI MI IC50/EC50” value was greater than 10 µM. In addition, in the experiment on HeLa cells, the “Hela CellCycMod PI Cell Number IC50/EC50” value stood at 0.134 µM. Also, the “hp70S6K1 LANCE IC50/EC50” value on hp70S6K1 (RPS6KB1) is greater than 20 µM. Moreover, at hKDR, the “hKDR LANCE IC50/EC50” value is given as greater than 20 µM. For the same compound, the “hJAK2 LANCE IC50/EC50” value at hJAK2 is reported as greater than 20 µM. The “hGSK3b LANCE IC50/EC50” value at hGSK3b is greater than 20 µM. In addition, the “hFLT3 LANCE IC50/EC50” value at hFLT3 is greater than 20 µM. The “VEGF_ADSC\ECFC Angio Hoechst NucArea IC50/EC50” value in experiment [4] was greater than 10 µM.

For the compound `CC[C@@]1(O)C(=O)OCc2c1cc1n(c2=O)Cc2c-1nc1ccccc1c2/C=N/OC(C)(C)C` [NCGC00253588-01], the “VEGF_ADSC\ECFC Angio CD31 TubeArea IC50/EC50” value in [1] was 0.002 µM. For the same compound, the “WntCondMedia_bCatenin C2C12 IC50/EC50” value in experiment [2] was 1.1571 µM. The “WntCondMedia_Alk Phos C2C12 IC50/EC50” value in experiment [3] was determined as 0.0032 µM. Also, in the experiment with HeLa cells, the “Hela CellCycMod PI 4N IC50/EC50” value is given as greater than 10 µM, the “Hela CellCycMod PI MI IC50/EC50” value is on record as greater than 10 µM and the “Hela CellCycMod PI Cell Number IC50/EC50” value worked out at 0.0022 µM. Also, the “hp70S6K1 LANCE IC50/EC50” value on hp70S6K1 (RPS6KB1) is listed as greater than 20 µM. Further, the “hKDR LANCE IC50/EC50” value at hKDR was greater than 20 µM. Besides, the “hJAK2 LANCE IC50/EC50” value on hJAK2 is listed as greater than 20 µM. At hGSK3b, the “hGSK3b LANCE IC50/EC50” value was greater than 20 µM. In addition, at hFLT3, the “hFLT3 LANCE IC50/EC50” value is given as greater than 20 µM. In addition, the “VEGF_ADSC\ECFC Angio Hoechst NucArea IC50/EC50” value in experiment [4] worked out at 0.7994 µM.

Values taken from publication PMC4503722, “Novel Phenotypic Outcomes Identified for a Public Collection of Approved Drugs from a Publicly Accessible Panel of Assays” (PLoS ONE, 2015).
